Results taken from US20100167956A1, “DNA CHIP FOR DETECTION OF ESCHERICHIA COLI” (MEDIGENES CO., LTD., priority 2007, published 2010).
Converted amounts (≈) assume the structure as drawn.

Columns and labels:
[1] = tested on: E. coli (ATCC 25922); assay: MIC (minimal inhibitory concentration) test, standard dilution method; type: cell-based; conditions: Escherichia coli, ATCC25922; E. coli ATCC 25922, standard dilution method
Description: For the strain, E. coli (ATCC 25922) was used, and for the antibiotic, Ceftriaxone (CJ, Seoul, Korea), to which E. coli has not developed resistance, was used for the sensitivity test.
First, each strain activated by two subcultures was used to estimate the antibiotic sensitivity by MIC (minimal inhibitory concentration) test. For the MIC test, a standard dilution method (Performance Standards for Antimicrobial Susceptibility Testing; Fifteenth Informational Supplement, Clinical and Laboratory Standard Institute, M100-S15, Vol. 25, No. 1, 2005) was used according to CLIS (The Clinical and Laboratory Standards Institute) guidelines.

[2] = tested on: E. coli (ATCC 25922); assay: Plate count of E. coli in antibiotic-treated cultures; conditions: 1st-3rd experiment

SMILES: CO/N=C(\C(=O)N[C@@H]1C(=O)N2C(C(=O)O)=C(CSc3nc(=O)c(=O)[nH]n3C)CS[C@H]12)c1csc(N)n1 [Ceftriaxone]
- MIC [1]: 0.12 µg/mL (≈ 0.216 µM)
- CFU (number of bacteria, plate count) ([2]; EC-1-04: 1 MIC antibiotic, 4 hr): 0 CFU
- CFU (number of bacteria, plate count) ([2]; EC-1-06: 1 MIC antibiotic, 6 hr): 0 CFU
- CFU (number of bacteria, plate count) ([2]; EC-1-12: 1 MIC antibiotic, 12 hr): 0 CFU
- CFU (number of bacteria, plate count) ([2]; EC-1-24: 1 MIC antibiotic, 24 hr): 0 CFU
- CFU (number of bacteria, plate count) ([2]; EC-2-02: 2 MIC antibiotic, 2 hr): 0 CFU
- CFU (number of bacteria, plate count) ([2]; EC-2-04: 2 MIC antibiotic, 4 hr): 0 CFU
- CFU (number of bacteria, plate count) ([2]; EC-2-06: 2 MIC antibiotic, 6 hr): 0 CFU
- CFU (number of bacteria, plate count) ([2]; EC-2-12: 2 MIC antibiotic, 12 hr): 0 CFU
- CFU (number of bacteria, plate count) ([2]; EC-2-24: 2 MIC antibiotic, 24 hr): 0 CFU
